# Target: protein target (Homo sapiens, UniProt Q06187)
# Test: Reversibility of binding (compound in solution before and after perturbation of the target, HPLC-MS/MS)
# Details: after 5 M guanidine hydrochloride denaturation and trypsin digestion
# Experimental: The following approach was developed to differentiate compounds that form irreversible bonds with their targets, such as acrylamide compounds, from compound that bind reversibly. […] The reactions were then treated with perturbations including both denaturation with 5 M guanidine hydrochloride and digestion with trypsin, disrupting proper folding of the target. […] The concentration of compound in solution was assessed both preceding and following perturbation using high performance liquid chromatography (HPLC) coupled to tandem mass spectrometry.
# protein target, sequence (Q06187 2-659): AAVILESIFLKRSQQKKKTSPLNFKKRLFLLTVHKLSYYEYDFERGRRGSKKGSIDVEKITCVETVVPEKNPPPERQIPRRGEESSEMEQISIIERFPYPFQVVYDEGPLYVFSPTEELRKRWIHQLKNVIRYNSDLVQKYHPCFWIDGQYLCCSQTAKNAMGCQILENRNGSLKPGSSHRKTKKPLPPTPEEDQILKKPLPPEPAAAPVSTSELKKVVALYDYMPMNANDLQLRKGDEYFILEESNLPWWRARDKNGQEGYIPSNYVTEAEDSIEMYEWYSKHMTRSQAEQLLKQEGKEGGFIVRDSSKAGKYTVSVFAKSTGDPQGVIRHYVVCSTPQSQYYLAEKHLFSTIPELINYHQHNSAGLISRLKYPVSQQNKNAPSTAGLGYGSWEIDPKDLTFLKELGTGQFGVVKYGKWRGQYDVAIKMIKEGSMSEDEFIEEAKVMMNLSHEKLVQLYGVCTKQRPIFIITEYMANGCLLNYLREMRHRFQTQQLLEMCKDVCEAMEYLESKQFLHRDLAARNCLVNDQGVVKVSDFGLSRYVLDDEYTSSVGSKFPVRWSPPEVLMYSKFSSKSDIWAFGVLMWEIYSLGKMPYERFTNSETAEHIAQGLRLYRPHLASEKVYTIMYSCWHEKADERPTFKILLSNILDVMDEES
row,Structure (SMILES),compound in solution following perturbation of the target
1,"N#CC(=CC1CC1)C(=O)N1CCC[C@@H](n2cc(-c3ccc(Oc4ccccc4)cc3)c3c(N)ncnc32)C1 [Example 27, (R)-2-(3-(4-amino-5-(4-phenoxyphenyl)-7H-pyrrolo[2,3-d]pyrimidin-7-yl)piperidine-1-carbonyl)-3-cyclopropylacrylonitrile]",returned to solution

# Same assay, conditions: after denaturation with 5 M guanidine hydrochloride and digestion with trypsin
row,Structure (SMILES),Compound in solution in the denatured or digested state?
1,"N#CC(=CC1CC1)C(=O)N1CCC[C@@H](n2cc(-c3ccc(Oc4ccccc4)cc3)c3c(N)ncnc32)C1 [Example 27, (R)-2-(3-(4-amino-5-(4-phenoxyphenyl)-7H-pyrrolo[2,3-d]pyrimidin-7-yl)piperidine-1-carbonyl)-3-cyclopropylacrylonitrile]",yes

# Same assay, conditions: before perturbation
row,Structure (SMILES),depletion of compound from solution in the native (folded) state
1,"N#CC(=CC1CC1)C(=O)N1CCC[C@@H](n2cc(-c3ccc(Oc4ccccc4)cc3)c3c(N)ncnc32)C1 [Example 27, (R)-2-(3-(4-amino-5-(4-phenoxyphenyl)-7H-pyrrolo[2,3-d]pyrimidin-7-yl)piperidine-1-carbonyl)-3-cyclopropylacrylonitrile]",depleted

# Same assay, conditions: protein target at higher concentration than compound; before perturbation
row,Structure (SMILES),Compound in solution in the native state?
1,"N#CC(=CC1CC1)C(=O)N1CCC[C@@H](n2cc(-c3ccc(Oc4ccccc4)cc3)c3c(N)ncnc32)C1 [Example 27, (R)-2-(3-(4-amino-5-(4-phenoxyphenyl)-7H-pyrrolo[2,3-d]pyrimidin-7-yl)piperidine-1-carbonyl)-3-cyclopropylacrylonitrile]",no

# Target: human recombinant Btk (Homo sapiens, UniProt Q06187)
# Test: Btk enzymatic activity assay (Caliper-based kinase assay)
# Type: biochemical
# Details: human recombinant Btk 2 nM, ATP 40 μM, room temperature 3 h, compounds of Cpd Table 1
# Experimental: A Caliper-based kinase assay (Caliper Life Sciences, Hopkinton, Mass.) was used to measure inhibition of Btk kinase activity of a compound of Formula (IA), (I′) or (I). […] The reaction was then terminated with EDTA, final concentration 20 mM and the phosphorylated reaction product was quantified on a Caliper Desktop Profiler (Caliper LabChip 3000). […] This value is presented as the IC50.
# human recombinant Btk, sequence (Q06187 whole entry): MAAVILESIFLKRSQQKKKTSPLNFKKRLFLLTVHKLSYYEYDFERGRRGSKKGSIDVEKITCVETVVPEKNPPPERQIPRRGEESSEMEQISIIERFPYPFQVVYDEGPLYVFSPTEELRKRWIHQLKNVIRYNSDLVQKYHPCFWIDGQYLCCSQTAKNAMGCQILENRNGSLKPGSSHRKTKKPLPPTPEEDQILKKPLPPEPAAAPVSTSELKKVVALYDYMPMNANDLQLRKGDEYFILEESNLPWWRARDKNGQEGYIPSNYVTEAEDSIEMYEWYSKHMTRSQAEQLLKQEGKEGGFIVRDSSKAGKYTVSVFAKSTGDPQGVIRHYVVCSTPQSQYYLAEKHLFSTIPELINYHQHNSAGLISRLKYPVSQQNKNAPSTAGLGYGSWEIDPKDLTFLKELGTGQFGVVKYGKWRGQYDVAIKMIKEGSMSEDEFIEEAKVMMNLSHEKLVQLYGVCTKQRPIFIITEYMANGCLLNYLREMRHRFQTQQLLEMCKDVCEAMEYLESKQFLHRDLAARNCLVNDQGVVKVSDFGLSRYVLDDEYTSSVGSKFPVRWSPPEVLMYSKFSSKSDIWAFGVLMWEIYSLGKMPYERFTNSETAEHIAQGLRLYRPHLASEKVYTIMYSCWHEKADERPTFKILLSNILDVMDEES
row,IC50,Structure (SMILES)
1,0.006 µM,CC(Cn1nc(-c2ccc(Oc3ccccc3)cc2F)c2c(N)ncnc21)NC(=O)C(C#N)=CC(C)(C)N (stereo not drawn) [Example 195]
2,0.061 µM,COc1cc(-c2nn(C3CCCN(C(=O)C(C#N)=CC4CC4)C3)c3ncnc(N)c23)ccc1Oc1ccc(Cl)c(Cl)c1 (stereo not drawn) [compound 4]
3,0.365 µM,COc1cc(-c2nn(C3CCN(C(=O)C(C#N)=CC4CC4)CC3)c3ncnc(N)c23)ccc1Oc1ccc(Cl)c(Cl)c1 [compound 6]
4,0.014 µM,N#CC(=CC1CC1)C(=O)NC1CCC(n2nc(-c3ccc(Oc4ccccc4)cc3)c3c(N)ncnc32)CC1 (stereo not drawn) [compound 11]
5,0.0013 µM,"CC(C)(C)C=C(C#N)C(=O)N1CCCC(n2nc(-c3ccc(Oc4ccccc4)cc3)c3c(N)ncnc32)C1 (stereo not drawn) [Example 7, 2-(3-(4-amino-3-(4-phenoxyphenyl)-1H-pyrazolo[3,4-d]pyrimidin-1-yl)piperidine-1-carbonyl)-4,4-dimethylpent-2-enenitrile]"
6,0.98 µM,COc1cc(-c2nn(C3CCN(C(=O)C(C#N)=CC(C)(C)C)CC3)c3ncnc(N)c23)ccc1Oc1ccc(Cl)c(Cl)c1 [compound 9]

row,Structure (SMILES),IC50
1,NC(=O)C(=CC1CC1)C(=O)N1CCC[C@@H](n2nc(-c3ccc(Oc4ccccc4F)cc3)c3c(N)ncnc32)C1 [Example 32A],0.0017 µM

# Same assay, conditions: human recombinant Btk 2 nM, ATP 40 μM, room temperature 3 h, compounds of Cpd Table 2
row,IC50,Structure (SMILES)
1,> 1 µM,"CC(C)(C)C=C(C#N)C(=O)N1CCC(n2nc(-c3ccc(NC(=O)c4ccc(C(F)(F)F)cc4)cc3)c3c(N)ncnc32)CC1 [Table 2-6, N-(4-(4-amino-1-(1-(2-cyano-4,4-dimethylpent-2-enoyl)piperidin-4-yl)-1H-pyrazolo[3,4-d]pyrimidin-3-yl)phenyl)-4-(trifluoromethyl)benzamide]"
2,0.013 µM,"CC(C)(C)C=C(C#N)C(=O)N1CCCC(n2nc(-c3ccc(NC(=O)c4ccc(C(F)(F)F)cc4)cc3)c3c(N)ncnc32)C1 (stereo not drawn) [Table 2-3, N-(4-(4-amino-1-(1-(2-cyano-4,4-dimethylpent-2-enoyl)piperidin-3-yl)-1H-pyrazolo[3,4-d]pyrimidin-3-yl)phenyl)-4-(trifluoromethyl)benzamide]"
3,0.18 µM,"CC(C)(C)C=C(C#N)C(=O)N1CCCC1Cn1nc(-c2ccc(NC(=O)c3ccc(C(F)(F)F)cc3)cc2)c2c(N)ncnc21 (stereo not drawn) [Table 2-5, N-(4-(4-amino-1-((1-(2-cyano-4,4-dimethylpent-2-enoyl)pyrrolidin-2-yl)methyl)-1H-pyrazolo[3,4-d]pyrimidin-3-yl)phenyl)-4-(trifluoromethyl)benzamide]"
4,> 1 µM,"N#CC(=CC1CC1)C(=O)N1CCC(n2nc(-c3ccc(NC(=O)c4ccc(C(F)(F)F)cc4)cc3)c3c(N)ncnc32)CC1 [Table 2-2, N-(4-(4-amino-1-(1-(2-cyano-3-cyclopropylacryloyl)piperidin-4-yl)-1H-pyrazolo[3,4-d]pyrimidin-3-yl)phenyl)-4-(trifluoromethyl)benzamide]"
5,0.062 µM,"N#CC(=CC1CC1)C(=O)N1CCCC(n2nc(-c3ccc(NC(=O)c4ccc(C(F)(F)F)cc4)cc3)c3c(N)ncnc32)C1 (stereo not drawn) [Table 2-1, N-(4-(4-amino-1-(1-(2-cyano-3-cyclopropylacryloyl)piperidin-3-yl)-1H-pyrazolo[3,4-d]pyrimidin-3-yl)phenyl)-4-(trifluoromethyl)benzamide]"
6,> 1 µM,"CC(C)(C)C=C(C#N)C(=O)NC1CCC(n2nc(-c3ccc(NC(=O)c4ccc(C(F)(F)F)cc4)cc3)c3c(N)ncnc32)CC1 (stereo not drawn) [Table 2-10, N-(4-(4-amino-1-((1s,4s)-4-(2-cyano-4,4-dimethylpent-2-enamido)cyclohexyl)-1H-pyrazolo[3,4-d]pyrimidin-3-yl)phenyl)-4-(trifluoromethyl)benzamide]"
7,> 1 µM,"CC(C)(C)C=C(C#N)C(=O)NC1CCC(n2nc(-c3ccc(NC(=O)c4ccc(C(F)(F)F)cc4)cc3)c3c(N)ncnc32)CC1 (stereo not drawn) [Table 2-8, N-(4-(4-amino-1-((1r,4r)-4-(2-cyano-4,4-dimethylpent-2-enamido)cyclohexyl)-1H-pyrazolo[3,4-d]pyrimidin-3-yl)phenyl)-4-(trifluoromethyl)benzamide]"

# — US8962831B2, “Tyrosine kinase inhibitors” (Principia Biopharma Inc., priority 2011, dated 2015)
